Source: patent US11357749B2, “Methods for treating neutropenia” (Enzychem Lifesciences Corporation, priority 2014, dated 2022)

B1: G-CSL: Granulocyte-colony stimulating factor, glycoprotein that stimulates hematopoietic precursor cells; 0.25 mpk i.p. in mice (protein, UniProt P09920 31-208, looked up)
Granulocyte …: VPLVTVSALPPSLPLPRSFLLKSLEQVRKIQASGSVLLEQLCATYKLCHPEELVLLGHSLGIPKASLSGCSSQALQQTQCLSQLHSGLCLYQGLLQALSGISPALAPTLDLLQLDVANFATTIWQQMENLGVAPTVQPTQSAMPAFTSAFQRRAGGVLAISYLQGFLETARLALHHLA

How the values were obtained:
C3 [1] = test: C3 expression (RT-PCR) in IL-4/TNF-α treated HMC-1 cells; format: cell-based, human; conditions: HMC-1 cells treated with IL-4 and TNF-α; PLAG 0.1 and 1 μg/mL
Procedure: A blood cell line, HMC-1 (human mast cell, American Type Culture Collection, ATCC, Rockville, Md.) is incubated and maintained at 37° C. under 5% CO2 humid conditions. The medium is IMDM (Life Technologies, Karlsruhe, Germany) containing 10% Fetal Calf Serum (FCS, HyClone, Logan, Utah), 2 mM […], 100 μg/ml penicillin, 100 μg/ml streptomycin (Life Technologies). The cultured HMC-1 cells (1×10^6 cell/ml) are pre-treated with 0.1 and 1 μg/mL concentration of PLAG, followed by treating with IL-4 (5 ng) and/or TNF-α (10 ng) to induce cellular activities.
The expressed C3 and its mRNA level change are observed by using RT-PCR (Reverse Transcriptase Polymerase Chain Reaction). The RT-PCR is carried out as follows: the total RNA is separated by the standard protocol and cDNA is synthesized using AccuScript High Fidelity 1st Strand cDNA Synthesis Kit (Stratagene) by the manufacturer's instructions. Two-step RT-PCR reaction is conducted using Oligo-dT primer and reverse transcriptase, pair of primer and Taq polymerase (Takara, Shiga, Japan). […] The product of PCR is separated using 1.5% agarose gel, dyed with ethidium bromide (EtBr), and visualized with Gel Doc 2000 UV trans-illuminator (Bio-Rad Laboratories, Hercules, Calif., USA), and the experimental data is analyzed using Quantity One software (Bio-Rad Laboratories).

C3 [2] = test: C3 mRNA (RT-PCR) in HepG2 cells; format: cell-based, human; conditions: HepG2, 10 and 100 microgram/ml of S6I, compared with PLAG
Procedure: A liver cell line, HepG2 (American Type Culture Collection, ATCC, Rockville, Md.), is incubated and maintained at 37° C., 5% CO2 humid atmosphere in DMEM medium. When HepG2 cells, which are known to produce complement in culture, are treated with PLAG, the activity of complement is reduced effectively, as confirmed by RT-PCR of mRNA. In the RT-PCR, 5×10^5 number of HepG2 cells/ml are distributed into 12 well plates and induced C3 for 12 hours with 10% FCS. Then PLAG is added and further cultured for 2 hours. Cells are harvested and mRNA is isolated and RT-PCR is carried out with specific primer of C3; GAPDH is used as an internal control.

[3] = system: white blood cells and neutrophils; test: Cyclophosphamide-induced neutropenia in mice, G-CSF with or without PLAG; format: in vivo; conditions: mice, cyclophosphamide 100 mpk i.p. ten days; G-CSF 0.25 mpk i.p.; PLAG 25 mpk p.o.
From the text: Mice receive cyclophosphamide (100 mpk, i.p.) for a period of ten days, with or without G-CSF (0.25 mpk, i.p.) or G-CSF (0.25 mpk, i.p.) plus PLAG (25 mpk, p.o.): […]

| Molecule | expression of C3 (C3 [1]) | C3 expression (RT-PCR) (C3 [2]) | Neutrophils [3] [k/μl] | White blood cells (WBCs) [3] [k/μl] |
| --- | --- | --- | --- | --- |
| NC(=O)c1cnc(NCCc2ccc(O)c(Cl)c2)nc1NCc1ccccc1 [S6I, reference compound] | suppresses expression of C3 | comparable | – | – |
| B1 | – | – | 4.36 | 5.37 |
